# Measured values: ChEMBL document CHEMBL3112464, “Novel, sulfonamide linked inhibitors of the hepatitis C virus NS3 protease” (Bioorg Med Chem Lett, 2014)
# Legend:
# [1] = Inhibition of HCV genotype 1b NS3/4A protease; set-up: species or system Hepatitis C virus subtype 1b
# [2] = tested on: Hepatitis C virus; assay: Antiviral activity against HCV genotype 1b infected in Rluc cells by 384 well-format assay; type: functional, organism-based, Hepacivirus hominis
smiles,measurement,setting,value
C=C[C@@H]1C[C@]1(NC(=O)[C@@H]1C[C@@H](Oc2cc(-c3nc(C(C)C)cs3)nc3c(C)c(OC)ccc23)[C@H]2CCCC(=O)N21)C(=O)NS(=O)(=O)C1CC1,IC50,[1],47 nM
same,EC50,[2],> 2000 nM
COc1ccc2c(O[C@@H]3C[C@H]4C(=O)N[C@]5(C(=O)O)C[C@H]5/C=C\CCCCCS(=O)(=O)N4C3)cc(-c3nc(C(C)C)cs3)nc2c1C,IC50,[1],747 nM
same,EC50,[2],> 2000 nM
COc1ccc2c(O[C@@H]3C[C@H]4C(=O)N[C@]5(C(=O)NS(=O)(=O)C6CC6)C[C@H]5/C=C\CCCCCS(=O)(=O)N4C3)cc(-c3nc(C(C)C)cs3)nc2c1C,IC50,[1],2.9 nM
same,EC50,[2],79 nM
COc1ccc2c(O[C@@H]3C[C@H]4C(=O)N[C@]5(C(=O)NS(=O)(=O)C6CC6)C[C@H]5CCCCCCCS(=O)(=O)N4C3)cc(-c3nc(C(C)C)cs3)nc2c1C,IC50,[1],4.7 nM
same,EC50,[2],89 nM
COc1ccc2c(O[C@@H]3C[C@H]4C(=O)N[C@]5(C(=O)O)C[C@H]5/C=C\CCCCCCS(=O)(=O)N4C3)cc(-c3nc(C(C)C)cs3)nc2c1C,IC50,[1],712 nM
same,EC50,[2],> 2000 nM
COc1ccc2c(O[C@@H]3C[C@H]4C(=O)N[C@]5(C(=O)NS(=O)(=O)C6CC6)C[C@H]5/C=C\CCCCCCS(=O)(=O)N4C3)cc(-c3nc(C(C)C)cs3)nc2c1C,IC50,[1],13 nM
same,EC50,[2],440 nM
COc1ccc2c(O[C@@H]3C[C@H]4C(=O)N[C@]5(C(=O)NS(=O)(=O)C6CC6)C[C@H]5CCCCCCCCS(=O)(=O)N4C3)cc(-c3nc(C(C)C)cs3)nc2c1C,IC50,[1],7.4 nM
same,EC50,[2],257 nM
C=C[C@@H]1C[C@]1(NC(=O)[C@@H]1C[C@@H](Oc2cc(-c3nc(C(C)C)cs3)nc3c(C)c(OC)ccc23)[C@H]2CCCS(=O)(=O)N21)C(=O)NS(=O)(=O)C1CC1,IC50,[1],639 nM
same,EC50,[2],> 2000 nM
COc1ccc2c(O[C@@H]3C[C@H]4C(=O)N[C@]5(C(=O)NS(=O)(=O)C6CC6)C[C@H]5/C=C\CCCCCCC(=O)N4C3)cc(-c3nc(C(C)C)cs3)nc2c1C,IC50,[1],0.3 nM
same,EC50,[2],5.8 nM
COc1ccc2c(O[C@@H]3C[C@H]4C(=O)N[C@]5(C(=O)NS(=O)(=O)C6CC6)C[C@H]5/C=C\CCCCCC(=O)N4C3)cc(-c3nc(C(C)C)cs3)nc2c1C,IC50,[1],0.4 nM
same,EC50,[2],4 nM
